According to article PMC9401487 (Clinical Cancer Research, 2021):

System: patients with advanced solid tumors
Test: Phase I safety and tolerability
Type: in vivo, human
[1] = Cohort 7 (N=6), co-dosing 40 mg QD + carboplatin days 1 and 2
[2] = Cohort 7: 40 mg QD days 1–2 + carboplatin AUC5 day 1, 6 patients
[3] = all 36 patients, ceralasertib + carboplatin

C[C@@H]1COCCN1c1cc(C2([S@](C)(=N)=O)CC2)nc(-c2cc[nH]c3nccc2-3)n1 [ceralasertib]
TEAE Constipation, Grade 1–2 [1]: 3 (50) patients, n (%) | TEAE Constipation, Grade ≥3 [1]: 0 patients, n (%) | TEAE Contusion, Grade 1–2 [1]: 1 (17) patients, n (%) | TEAE Contusion, Grade ≥3 [1]: 0 patients, n (%) | TEAE Cough, Grade 1–2 [1]: 0 patients, n (%) | TEAE Cough, Grade ≥3 [1]: 0 patients, n (%) | TEAE Decreased appetite, Grade 1–2 [1]: 3 (50) patients, n (%) | TEAE Decreased appetite, Grade ≥3 [1]: 0 patients, n (%) | TEAE Diarrhea, Grade 1–2 [1]: 1 (17) patients, n (%) | TEAE Diarrhea, Grade ≥3 [1]: 0 patients, n (%) | TEAE Dizziness, Grade 1–2 [1]: 0 patients, n (%) | TEAE Dizziness, Grade ≥3 [1]: 0 patients, n (%) | TEAE Dyspnea, Grade 1–2 [1]: 0 patients, n (%) | TEAE Dyspnea, Grade ≥3 [1]: 0 patients, n (%) | TEAE Fatigue, Grade 1–2 [1]: 4 (67) patients, n (%) | TEAE Fatigue, Grade ≥3 [1]: 0 patients, n (%) | TEAE Hypocalcemia, Grade 1–2 [1]: 1 (17) patients, n (%) | TEAE Hypocalcemia, Grade ≥3 [1]: 0 patients, n (%) | TEAE Insomnia, Grade 1–2 [1]: 0 patients, n (%) | TEAE Insomnia, Grade ≥3 [1]: 0 patients, n (%) | TEAE Lower respiratory tract infection, Grade 1–2 [1]: 0 patients, n (%) | TEAE Lower respiratory tract infection, Grade ≥3 [1]: 0 patients, n (%) | TEAE Nausea, Grade 1–2 [1]: 5 (83) patients, n (%) | TEAE Nausea, Grade ≥3 [1]: 0 patients, n (%) | TEAE Neutropenia, Grade 1–2 [1]: 0 patients, n (%) | TEAE Neutropenia, Grade ≥3 [1]: 0 patients, n (%) | TEAE Neutrophil count decreased, Grade 1–2 [1]: 0 patients, n (%) | TEAE Neutrophil count decreased, Grade ≥3 [1]: 1 (17) patients, n (%) | TEAE Platelet count decreased, Grade 1–2 [1]: 2 (33) patients, n (%) | TEAE Platelet count decreased, Grade ≥3 [1]: 1 (17) patients, n (%) | TEAE Pyrexia, Grade 1–2 [1]: 1 (17) patients, n (%) | TEAE Pyrexia, Grade ≥3 [1]: 0 patients, n (%) | TEAE Thrombocytopenia, Grade 1–2 [1]: 0 patients, n (%) | TEAE Thrombocytopenia, Grade ≥3 [1]: 0 patients, n (%) | TEAE Upper respiratory tract infection, Grade 1–2 [1]: 1 (17) patients, n (%) | TEAE Upper respiratory tract infection, Grade ≥3 [1]: 0 patients, n (%) | TEAE Vomiting, Grade 1–2 [1]: 0 patients, n (%) | TEAE Vomiting, Grade ≥3 [1]: 1 (17) patients, n (%) | TEAE White blood cell count decreased, Grade 1–2 [1]: 0 patients, n (%) | TEAE White blood cell count decreased, Grade ≥3 [1]: 0 patients, n (%) | Number of DLTs [2]: one DLT of grade 4 platelet count decreased | SRC decision (tolerability) [2]: declared safe and well tolerated | Patients who discontinued treatment because of an AE (N=36): 14% | TEAE Abdominal pain, Grade 1–2 (Total (N=36)): 5 (14) patients, n (%) | TEAE Abdominal pain, Grade ≥3 (Total (N=36)): 1 (3) patients, n (%) | TEAE Alanine aminotransferase increased, Grade 1–2 (Total (N=36)): 3 (8) patients, n (%) | TEAE Alanine aminotransferase increased, Grade ≥3 (Total (N=36)): 1 (3) patients, n (%) | TEAE Anemia, Grade 1–2 (Total (N=36)): 11 (31) patients, n (%) | TEAE Anemia, Grade ≥3 (Total (N=36)): 14 (39) patients, n (%) | TEAE Any AE, Grade 1–2 (Total (N=36)): 9 (25) patients, n (%) | TEAE Any AE, Grade ≥3 (Total (N=36)): 27 (75) patients, n (%) | TEAE Arthralgia, Grade 1–2 (Total (N=36)): 4 (11) patients, n (%) | TEAE Arthralgia, Grade ≥3 (Total (N=36)): 0 patients, n (%) | TEAE Aspartate aminotransferase increased, Grade 1–2 (Total (N=36)): 3 (8) patients, n (%) | TEAE Aspartate aminotransferase increased, Grade ≥3 (Total (N=36)): 1 (3) patients, n (%) | TEAE Constipation, Grade 1–2 (Total (N=36)): 10 (28) patients, n (%) | TEAE Constipation, Grade ≥3 (Total (N=36)): 0 patients, n (%) | TEAE Contusion, Grade 1–2 (Total (N=36)): 4 (11) patients, n (%) | TEAE Contusion, Grade ≥3 (Total (N=36)): 0 patients, n (%) | TEAE Cough, Grade 1–2 (Total (N=36)): 5 (14) patients, n (%) | TEAE Cough, Grade ≥3 (Total (N=36)): 0 patients, n (%) | TEAE Decreased appetite, Grade 1–2 (Total (N=36)): 8 (22) patients, n (%) | TEAE Decreased appetite, Grade ≥3 (Total (N=36)): 0 patients, n (%) | TEAE Diarrhea, Grade 1–2 (Total (N=36)): 6 (17) patients, n (%) | TEAE Diarrhea, Grade ≥3 (Total (N=36)): 0 patients, n (%) | TEAE Dizziness, Grade 1–2 (Total (N=36)): 4 (11) patients, n (%) | TEAE Dizziness, Grade ≥3 (Total (N=36)): 0 patients, n (%) | TEAE Dyspnea, Grade 1–2 (Total (N=36)): 5 (14) patients, n (%) | TEAE Dyspnea, Grade ≥3 (Total (N=36)): 0 patients, n (%) | TEAE Fatigue, Grade 1–2 (Total (N=36)): 16 (44) patients, n (%) | TEAE Fatigue, Grade ≥3 (Total (N=36)): 1 (3) patients, n (%) | TEAE Hypocalcemia, Grade 1–2 (Total (N=36)): 4 (11) patients, n (%) | TEAE Hypocalcemia, Grade ≥3 (Total (N=36)): 0 patients, n (%) | TEAE Insomnia, Grade 1–2 (Total (N=36)): 5 (14) patients, n (%) | TEAE Insomnia, Grade ≥3 (Total (N=36)): 0 patients, n (%) | TEAE Lower respiratory tract infection, Grade 1–2 (Total (N=36)): 4 (11) patients, n (%) | TEAE Lower respiratory tract infection, Grade ≥3 (Total (N=36)): 1 (3) patients, n (%) | TEAE Nausea, Grade 1–2 (Total (N=36)): 20 (56) patients, n (%) | TEAE Nausea, Grade ≥3 (Total (N=36)): 1 (3) patients, n (%) | TEAE Neutropenia, Grade 1–2 (Total (N=36)): 4 (11) patients, n (%) | TEAE Neutropenia, Grade ≥3 (Total (N=36)): 9 (25) patients, n (%) | TEAE Neutrophil count decreased, Grade 1–2 (Total (N=36)): 0 patients, n (%) | TEAE Neutrophil count decreased, Grade ≥3 (Total (N=36)): 4 (11) patients, n (%) | TEAE Platelet count decreased, Grade 1–2 (Total (N=36)): 4 (11) patients, n (%) | TEAE Platelet count decreased, Grade ≥3 (Total (N=36)): 2 (6) patients, n (%) | TEAE Pyrexia, Grade 1–2 (Total (N=36)): 9 (25) patients, n (%) | TEAE Pyrexia, Grade ≥3 (Total (N=36)): 0 patients, n (%) | TEAE Thrombocytopenia, Grade 1–2 (Total (N=36)): 12 (33) patients, n (%) | TEAE Thrombocytopenia, Grade ≥3 (Total (N=36)): 13 (36) patients, n (%) | TEAE Upper respiratory tract infection, Grade 1–2 (Total (N=36)): 4 (11) patients, n (%) | TEAE Upper respiratory tract infection, Grade ≥3 (Total (N=36)): 0 patients, n (%) | TEAE Vomiting, Grade 1–2 (Total (N=36)): 7 (19) patients, n (%) | TEAE Vomiting, Grade ≥3 (Total (N=36)): 2 (6) patients, n (%) | TEAE White blood cell count decreased, Grade 1–2 (Total (N=36)): 0 patients, n (%) | TEAE White blood cell count decreased, Grade ≥3 (Total (N=36)): 5 (14) patients, n (%) | TEAE anemia, any grade, patients [3]: 69.4% | TEAE fatigue, any grade, patients [3]: 47% | TEAE grade ≥3 anemia, patients [3]: 39% | TEAE grade ≥3 neutropenia, patients [3]: 25% | TEAE grade ≥3 thrombocytopenia, patients [3]: 36% | TEAE nausea, any grade, patients [3]: 58% | TEAE neutropenia, any grade, patients [3]: 36% | TEAE thrombocytopenia, any grade, patients [3]: 69.4% | AEs with a fatal outcome (all cohorts): no AEs with a fatal outcome were reported | Clinical chemistry laboratory variables, vital signs, ECG parameters (all cohorts): No clinically significant findings | Patients with dose modifications (cycle 1 and beyond, N=36): 47% | Patients with dose reductions (cycle 1 and beyond, N=36): 25% | Patients with treatment interruptions (cycle 1 and beyond, N=36): 31% | MTD dose schedule (concurrent) (days 1–2, with carboplatin AUC5, 21-day cycles): 40 mg once daily | MTD dose schedule (sequential) (days 4–13, with carboplatin AUC5, 21-day cycles): 20 mg twice daily | Patients who experienced ≥1 TEAE (safety set N=36): 36 patients
